15 molecules from PMC10707797, “Ureidobenzenesulfonamides as Selective Carbonic Anhydrase I, IX, and XII Inhibitors” (Molecules, 2023) can be followed below.

In one data set the target is T1, hCA XII (Homo sapiens, UniProt O43570). Nature of the data set: stop-flow CA inhibition assay, hCA XII. As to conditions: ratio Ki hCA I / Ki hCA XII.
T1 sequence (O43570 25-354): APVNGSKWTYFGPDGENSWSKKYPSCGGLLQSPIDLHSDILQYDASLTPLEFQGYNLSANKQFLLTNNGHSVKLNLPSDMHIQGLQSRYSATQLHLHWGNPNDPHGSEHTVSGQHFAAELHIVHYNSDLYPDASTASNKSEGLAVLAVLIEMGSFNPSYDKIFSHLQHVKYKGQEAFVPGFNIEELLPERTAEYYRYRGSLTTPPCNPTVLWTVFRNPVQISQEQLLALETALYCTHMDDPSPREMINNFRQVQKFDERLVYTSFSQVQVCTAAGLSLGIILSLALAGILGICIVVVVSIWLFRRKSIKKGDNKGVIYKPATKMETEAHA
As for `NS(=O)(=O)c1ccc(NC(=O)Nc2cccc3ccccc23)cc1` [Compound 1, 4-[3-(Naphthalen-1-yl)ureido]benzenesulfonamide], the “S(I/XII) selectivity” value came out at 15.66.
With `NS(=O)(=O)c1ccc(NC(=O)NC(=O)c2ccccc2)cc1` [Compound 12, N-[(4-Sulfamoylphenyl)carbamoyl]benzamide], the “S(I/XII) selectivity” value was found to be 14.84.

Still in this data set, the particulars now being: ratio Ki hCA II / Ki hCA XII.
In the case of `NS(=O)(=O)c1ccc(NC(=O)Nc2cccc3ccccc23)cc1` [Compound 1, 4-[3-(Naphthalen-1-yl)ureido]benzenesulfonamide], the “S(II/XII) selectivity” value stood at 2.16.
Same read-out and setting: as for `NS(=O)(=O)c1ccc(NC(=O)NC(=O)c2ccccc2)cc1` [Compound 12, N-[(4-Sulfamoylphenyl)carbamoyl]benzamide], the figure is 3.27.

The next data set deals with T2, hCA IX (Homo sapiens, UniProt Q16790). In words: biochemical.
Conditions: not given
On to `NS(=O)(=O)c1ccc(NC(=O)Nc2cccc3ccccc23)cc1` [Compound 1, 4-[3-(Naphthalen-1-yl)ureido]benzenesulfonamide], for which the Ki – broadly, a measure of affinity in units of concentration, obtained from inhibition or displacement – amounted to 0.0429 µM.
On the same count and under the same terms, as for `COc1cccc(NC(=O)Nc2ccc(S(N)(=O)=O)cc2)c1` [Compound 6, 4-[3-(3-Methoxyphenyl)ureido]benzenesulfonamide], the figure is 0.21 µM; as for `CC(C)NC(=O)Nc1ccc(S(N)(=O)=O)cc1` [Compound 9, 4-(3-Isopropylureido)benzenesulfonamide], 0.184 µM; as for `NS(=O)(=O)c1ccc(NC(=O)NC(=O)c2ccccc2)cc1` [Compound 12, N-[(4-Sulfamoylphenyl)carbamoyl]benzamide], 0.208 µM.

Another data set deals with hCA II (Homo sapiens, UniProt P00918). Nature of the data set: biochemical.
Conditions: not given
`NS(=O)(=O)c1ccc(NC(=O)Nc2cccc3ccccc23)cc1` [Compound 1, 4-[3-(Naphthalen-1-yl)ureido]benzenesulfonamide] displayed a Ki of 0.0335 µM.
On the same count and under the same terms, as for `COc1ccc(-c2ccccc2)cc1NC(=O)Nc1ccc(S(N)(=O)=O)cc1` [Compound 4], the figure is 5.03 µM.
`NS(=O)(=O)c1ccc(NC(=O)NC(=O)c2ccccc2)cc1` [Compound 12, N-[(4-Sulfamoylphenyl)carbamoyl]benzamide] registered an inhibitory constant (Ki) of 0.209 µM.

System in another data set: not given
Experiment: not given
Conditions: not given
`NS(=O)(=O)c1ccc(NC(=O)Nc2ccc(Cc3ccccc3)cc2)cc1` [Compound 2, 4-[3-(4-Benzylphenyl)ureido]benzenesulfonamide]: the melting point (as a rule, the temperature, or range, at which the solid turns liquid) lay within 230 to 232 °C.
`NS(=O)(=O)c1ccc(NC(=O)Nc2ccccc2Cc2ccccc2)cc1` [Compound 3]: the melting point is 219 to 221 °C.
The same measure, in the same setting: as for `COc1ccc(-c2ccccc2)cc1NC(=O)Nc1ccc(S(N)(=O)=O)cc1` [Compound 4], the figure is 271 to 272 °C; as for `COc1ccc(NC(=O)Nc2ccc(S(N)(=O)=O)cc2)cc1` [Compound 5], 227 to 229 °C.
On the same count and under the same terms, the result for `NS(=O)(=O)c1ccc(NC(=O)Nc2cccc(F)c2)cc1` [Compound 7, 4-[3-(3-Fluorophenyl)ureido]benzenesulfonamide] reads 240 to 241 °C; that for `CCNC(=O)Nc1ccc(S(N)(=O)=O)cc1` [Compound 8, 4-(3-Ethylureido)benzenesulfonamide], 229 to 231 °C.
The same measure, in the same setting: as for `CC(C)NC(=O)Nc1ccc(S(N)(=O)=O)cc1` [Compound 9, 4-(3-Isopropylureido)benzenesulfonamide], the figure is 221 to 223 °C; as for `CCCCNC(=O)Nc1ccc(S(N)(=O)=O)cc1` [Compound 10, 4-(3-Butylureido)benzenesulfonamide], 194 to 196 °C.
As to `CCCCCCNC(=O)Nc1ccc(S(N)(=O)=O)cc1` [Compound 11, 4-(3-Hexylureido)benzenesulfonamide], the melting point is 202 to 203 °C.
The same measure, in the same setting: the result for `NS(=O)(=O)c1ccc(NC(=O)NC(=O)c2ccccc2)cc1` [Compound 12, N-[(4-Sulfamoylphenyl)carbamoyl]benzamide] reads 262 to 264 °C; that for `CCOC(=O)c1ccc(NC(=O)Nc2ccc(S(N)(=O)=O)cc2)cc1` [Compound 13, Ethyl 4-[3-(4-sulfamoylphenyl)ureido]benzoate], 261 to 263 °C; that for `NS(=O)(=O)c1ccc(NC(=O)Nc2ccc(C(=O)O)cc2)cc1` [Compound 14, 4-[3-(4-Sulfamoylphenyl)ureido]benzoic acid], 310 to 313 °C.
`NS(=O)(=O)c1ccc(NC(=O)Nc2cc(Cl)ccc2Oc2ccccc2)cc1` [Compound 15, 4-[3-(5-Chloro-2-phenoxyphenyl)ureido]benzenesulfonamide] gave a melting point of 209 °C.

For another data set, the target named is T1, hCA XII. Nature of the data set: biochemical.
Conditions: not given
As to `NS(=O)(=O)c1ccc(NC(=O)Nc2cccc3ccccc23)cc1` [Compound 1, 4-[3-(Naphthalen-1-yl)ureido]benzenesulfonamide], the Ki was 0.0155 µM.
Still for that read-out and setting: the result for `COc1cccc(NC(=O)Nc2ccc(S(N)(=O)=O)cc2)c1` [Compound 6, 4-[3-(3-Methoxyphenyl)ureido]benzenesulfonamide] reads 0.0904 µM; that for `CC(C)NC(=O)Nc1ccc(S(N)(=O)=O)cc1` [Compound 9, 4-(3-Isopropylureido)benzenesulfonamide], 0.0459 µM; that for `NS(=O)(=O)c1ccc(NC(=O)NC(=O)c2ccccc2)cc1` [Compound 12, N-[(4-Sulfamoylphenyl)carbamoyl]benzamide], 0.0639 µM.

The target in the next data set is hCA I (Homo sapiens, UniProt P00915). In words: biochemical.
hCA I, sequence (P00915 whole entry): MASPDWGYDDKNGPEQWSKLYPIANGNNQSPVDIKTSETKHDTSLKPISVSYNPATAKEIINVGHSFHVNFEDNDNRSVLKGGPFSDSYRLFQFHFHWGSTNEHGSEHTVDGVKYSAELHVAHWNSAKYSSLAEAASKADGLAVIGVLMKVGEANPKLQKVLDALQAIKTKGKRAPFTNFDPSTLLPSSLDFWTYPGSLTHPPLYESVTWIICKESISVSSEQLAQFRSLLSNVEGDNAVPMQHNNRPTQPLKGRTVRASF
Conditions: not given
The molecule `NS(=O)(=O)c1ccc(NC(=O)Nc2cccc3ccccc23)cc1` [Compound 1, 4-[3-(Naphthalen-1-yl)ureido]benzenesulfonamide] returned a Ki of 0.243 µM.
Turning to `COc1ccc(-c2ccccc2)cc1NC(=O)Nc1ccc(S(N)(=O)=O)cc1` [Compound 4], affinity was put at a Ki of 6.65 µM.
Same read-out and setting: the result for `CC(C)NC(=O)Nc1ccc(S(N)(=O)=O)cc1` [Compound 9, 4-(3-Isopropylureido)benzenesulfonamide] reads 0.448 µM; that for `NS(=O)(=O)c1ccc(NC(=O)NC(=O)c2ccccc2)cc1` [Compound 12, N-[(4-Sulfamoylphenyl)carbamoyl]benzamide], 0.949 µM.

A further data set has as its target T2, hCA IX. Nature of the data set: stop-flow CA inhibition assay, hCA IX. Particulars: ratio Ki hCA I / Ki hCA IX.
With `NS(=O)(=O)c1ccc(NC(=O)Nc2cccc3ccccc23)cc1` [Compound 1, 4-[3-(Naphthalen-1-yl)ureido]benzenesulfonamide], the “S(I/IX) selectivity” value worked out at 5.66.
Same read-out and setting: as for `NS(=O)(=O)c1ccc(NC(=O)NC(=O)c2ccccc2)cc1` [Compound 12, N-[(4-Sulfamoylphenyl)carbamoyl]benzamide], the figure is 4.57.

The data set is the same for the next values; noted with them: ratio Ki hCA II / Ki hCA IX.
In the case of `NS(=O)(=O)c1ccc(NC(=O)Nc2cccc3ccccc23)cc1` [Compound 1, 4-[3-(Naphthalen-1-yl)ureido]benzenesulfonamide], the “S(II/IX) selectivity” value was found to be 0.78.
Take `NS(=O)(=O)c1ccc(NC(=O)NC(=O)c2ccccc2)cc1` [Compound 12, N-[(4-Sulfamoylphenyl)carbamoyl]benzamide]: the “S(II/IX) selectivity” value was 1.01.
